In the supplement of paper PMC3493320:

Tested on: NCI-H295R
Test: IC50 (antiproliferative, ATP content)
Settings: 48 h
Outline: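 Cell viability of adrenocortical carcinoma cells was assessed as ATP by CellTiter-Glo luminescence. Cells at 1500 per well in 1536-well plates, in serum-free DMEM with ITS, received compounds by pin transfer at 8 final concentrations (0.6 nM–46 µM) after overnight culture and were then held 48 h at 37 °C, 5% CO2. IC50 was calculated by logistic fitting against vehicle and positive-control wells, compounds with no concentration response being recorded as above the top dose.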

SMILES	IC50
CCOC(=O)C1=C(C)NC(C)=C(C(=O)OC)C1c1cccc(Cl)c1Cl (centres undefined)	> 46 µM
CCCC(CCC)C(=O)O	> 46 µM
CC(=O)[C@]2(CC[C@H]3[C@@H]4C[C@H](C)\C1=C\C(=O)CC[C@]1(C)[C@H]4CC[C@]23C)OC(C)=O	> 46 µM
OC[C@H]1O[C@@H]2O[C@H]3[C@H](O)[C@@H](O)[C@@H](O[C@H]4[C@H](O)[C@@H](O)[C@@H](O[C@H]5[C@H](O)[C@@H](O)[C@@H](O[C@H]6[C@H](O)[C@@H](O)[C@@H](O[C@H]7[C@H](O)[C@@H](O)[C@@H](O[C@H]1[C@H](O)[C@H]2O)O[C@@H]7CO)O[C@@H]6CO)O[C@@H]5CO)O[C@@H]4CO)O[C@@H]3CO	> 46 µM
CC/C(=C(/CC)c1ccc(OP(=O)(O)O)cc1)c1ccc(OP(=O)(O)O)cc1	> 46 µM
Nc1ccc([As](=O)(O)O)cc1	> 46 µM
Nc1ccc(C(=O)[O-])c(O)c1.[Na+]	> 46 µM
Cc1c[nH]c2ccccc12	> 46 µM
CCCCCCCCCCCCCC(=O)OCC(COP(=O)([O-])OCC[N+](C)(C)C)OC(=O)CCCCCCCCCCCCC (centres undefined)	> 46 µM
CCCn1cnc2c1c(=O)n(CCCCC(C)=O)c(=O)n2C	> 46 µM
CC(=O)CC(c1ccccc1)c1c([O-])c2ccccc2oc1=O.[K+] (centres undefined)	> 46 µM
CN(C)CCOC(c1ccc(Cl)cc1)c1ccccn1.O=C(O)/C=C\C(=O)O (centres undefined)	> 46 µM
CCN(Cc1ccc(Cl)nc1)/C(=C/[N+](=O)[O-])NC	> 46 µM
Cc1ccc(/N=C/N(C)/C=N/c2ccc(C)cc2C)c(C)c1	> 46 µM
O=C(O)CCCCC1CCSS1 (centres undefined)	> 46 µM
CC(=O)CC(c1ccc([N+](=O)[O-])cc1)c1c(O)c2ccccc2oc1=O (centres undefined)	> 46 µM
Nc1ccc(C(=O)O)cc1	> 46 µM
Cl.NNc1ccccc1	> 46 µM
NC(=O)OCCCc1ccccc1	> 46 µM
CCCOC(=O)c1ccc(O)cc1	> 46 µM
CCOC(=O)[C@H](CCc1ccccc1)N[C@@H](C)C(=O)N1[C@H](C(=O)O)C[C@@H]2CCC[C@@H]21	> 46 µM
COCCCC/C(=N\OCCN)c1ccc(C(F)(F)F)cc1	> 46 µM
Nc1ccc(S(=O)(=O)Nc2nccs2)cc1	> 46 µM
O=C(O)Cc1csc(-c2ccc(Cl)cc2)n1	> 46 µM
Cc1ccc(S(=O)(=O)NC(=O)NC2CCCC2)cc1	> 46 µM
NCC(O)c1ccc(O)cc1 (centres undefined)	> 46 µM

SMILES	IC50
Cc1ncsc1CCCl	> 46 µM
COC1=C(OC)C(=O)C(C/C=C(\C)CC/C=C(\C)CC/C=C(\C)CC/C=C(\C)CC/C=C(\C)CC/C=C(\C)CC/C=C(\C)CC/C=C(\C)CC/C=C(\C)CCC=C(C)C)=C(C)C1=O	> 46 µM
C[C@@H]1CN([C@H]2CC[C@](C#N)(c3ccc(F)cc3)CC2)CC[C@]1(C(=O)O)c1ccccc1.Cl	> 46 µM
Cl.O=C(OCC(O)CO)c1ccccc1Nc1ccnc2cc(Cl)ccc12 (centres undefined)	> 46 µM
O=C(O)c1ccccc1Nc1cccc(C(F)(F)F)c1	> 46 µM
C[C@]12CC[C@@H]3c4ccc(O)cc4CC[C@H]3[C@@H]1C[C@@H](O)[C@H]2O	> 46 µM
Nc1ncnc2c1ncn2[C@H]1CC[C@@H](CO)O1	> 46 µM
CCC1C2CC3[C@@H]4N(C)c5ccccc5C45CC(C2[C@H]5O)N3[C@@H]1O (some centres undefined)	> 46 µM
CCCC(=O)O[C@]1(C(=O)CO)CC[C@H]2[C@@H]3CCC4=CC(=O)CC[C@]4(C)[C@H]3[C@@H](O)C[C@@]21C	> 46 µM
CC(C)(Oc1ccc(C2CCCc3ccccc32)cc1)C(=O)O (centres undefined)	> 46 µM
O=C1OC(c2ccc(O)c(S(=O)(=O)[O-])c2)(c2ccc(O)c(S(=O)(=O)[O-])c2)c2c(Br)c(Br)c(Br)c(Br)c21.[Na+].[Na+]	> 46 µM
CN1[C@@H]2CC[C@H]1C[C@@H](OC(c1ccccc1)c1ccccc1)C2.CS(=O)(=O)O	> 46 µM
CN1C[C@@H](NS(=O)(=O)N(C)C)C[C@@H]2c3cccc4c3c(cn4C)C[C@H]21	> 46 µM
Cl.NC1CCN(c2cccc(Cl)n2)CC1	> 46 µM
CC[n+]1c(-c2ccccc2)c2cc(N)ccc2c2ccc(N)cc21.[Br-]	> 46 µM
Cc1ccc(O)c([C@H](CCN(C(C)C)C(C)C)c2ccccc2)c1	> 46 µM
C[C@@H](Cc1ccccc1)NCCC(c1ccccc1)c1ccccc1.C[C@H](O)C(=O)O	> 46 µM
NS(=O)(=O)c1ccc(NC(=O)CCC(=O)O)cc1	> 46 µM
CC1=CCC(C(C)(C)O)CC1 (centres undefined)	> 46 µM
Cc1cc2cc3c(C)cc(=O)oc3c(C)c2o1	> 46 µM
S=P(N1CC1)(N1CC1)N1CC1	> 46 µM
Cl.O=C(O)/C=C/c1ccc(Cn2ccnc2)cc1	> 46 µM
NCCNCCNCCN	> 46 µM
O=C(N[C@H](CO)[C@H](O)c1ccc([N+](=O)[O-])cc1)C(Cl)Cl	> 46 µM
COP(=S)(OC)SCN1C(=O)c2ccccc2C1=O	> 46 µM

Next, values leading:

IC50	SMILES
> 46 µM	OCC(O)CN1CCN(c2ccccc2)CC1 (centres undefined)
> 46 µM	[H][C@@]23N(CCC4=C3NC5=C4C=CC(OC)=C5)C[C@@]1([H])C[C@@H](OC(COC6=CC=C(OC)C=C6)=O)[C@H](OC)[C@@H]([C@@](OC)=O)[C@]([H])1C2
> 46 µM	CC(=O)N[C@@H](CS)C(=O)O
> 46 µM	O=[C@]([O-])[C@@H]2N1C([C@@]([H])(N3C(C)(C)NC(C4=CC=CC=C4)C3=O)[C@]([H])1SC(C)2C)=O.[K+] (some centres undefined)
> 46 µM	Cn1c(=O)c2c(ncn2CCO)n(C)c1=O
> 46 µM	OCc1ccccn1
> 46 µM	CN1C(C(=O)Nc2ccccn2)=C(O)c2sccc2S1(=O)=O
> 46 µM	Cc1onc(-c2ccccc2Cl)c1C(=O)N[C@@H]1C(=O)N2[C@@H]1SC(C)(C)[C@@H]2C(=O)[O-].[Na+]
> 46 µM	C[C@@H](O)[C@H]1C(=O)N2C(C(=O)O)=C(S[C@@H]3CN[C@H](CNS(N)(=O)=O)C3)[C@H](C)[C@H]12
> 46 µM	O=C(O)Cn1c(C(=O)Nc2nc(-c3ccccc3Cl)cs2)cc2ccccc21
> 46 µM	O=[C@](NC5=CC(C(F)(F)F)=CC=C5C(F)(F)F)[C@@H]4[C@@]3(C)CC[C@]2([H])[C@@]1(C)C=CC(N[C@@]([H])1CC[C@]([H])2[C@@]([H])3CC4)=O
> 46 µM	CC1=C(C=C/C(C)=C/C=C/C(C)=C/CO)C(C)(C)CCC1
> 46 µM	CCN1CCN(c2cc3c(cc2F)c(=O)c(C(=O)O)cn3C2CC2)CC1
> 46 µM	CCN(CC)S(=O)(=O)c1ccc(C(=O)O)cc1
> 46 µM	O=C(c1cc2ccccc2o1)N1CCN(Cc2ccccc2)CC1
> 46 µM	COc1ccc2c(=O)c(C)c(-c3ccccc3)oc2c1CN(C)C.Cl
> 46 µM	Cc1oncc1C(=O)Nc1ccc(C(F)(F)F)cc1
> 46 µM	CN1C(=O)OC(C)(C)C1=O
> 46 µM	CO/N=C(\C(=O)N[C@@H]1C(=O)N2C(C(=O)O)=C(CSC(=O)c3ccco3)CS[C@H]12)c1csc(N)n1
> 46 µM	CN(C)CCCN1c2ccccc2Sc2ccc(C(F)(F)F)cc21.Cl
> 46 µM	CCCCC1C(=O)N(c2ccccc2)N(c2ccccc2)C1=O
> 46 µM	CC(C)C[C@@H](NC(=O)[C@@H](O)[C@H](N)Cc1ccccc1)C(=O)O.Cl
> 46 µM	N=C(N)NS(=O)(=O)c1ccc(N)cc1
> 46 µM	O=C1c2ccccc2S(=O)(=O)N1CCCCN1CCN(c2ncccn2)CC1

IC50	SMILES
> 46 µM	Cc1[nH]c(=O)c(C#N)cc1-c1ccc2nccn2c1.Cl
> 46 µM	O=P([O-])([O-])OC[C@@]1(O)O[C@H](COP(=O)([O-])O)[C@@H](O)[C@@H]1O.[Na+].[Na+].[Na+]
> 46 µM	CCCCCCCCCCCCCCC[C@H](O)[C@H](N)CO
> 46 µM	O=C2N1[C@]([C@@]([H])2NC(CC3=CC=CC=C3)=O)([H])SC(C)(C)[C@@H]1[C@@]([O-])=O.[K+]
> 46 µM	c1ccc(-n2cnnn2)cc1
> 46 µM	C=CCc1ccccc1OCC(O)CNC(C)C (centres undefined)
> 46 µM	CO[C@@H]1[C@@H](O[C@@H]2O[C@H](C)[C@@H](O[C@H]3C[C@@](C)(O)[C@@H](O)[C@H](C)O3)[C@H](N(C)C)[C@H]2O)[C@@H](CC=O)C[C@@H](C)[C@@H](O[C@@H]2CC[C@H](N(C)C)[C@@H](C)O2)/C=C/C=C/C[C@@H](C)OC(=O)C[C@H]1O
> 46 µM	CN1CCN(c2c(F)cc3c(=O)c(C(=O)O)cn4c3c2OCN4C)CC1
> 46 µM	Cl.NCCS
> 46 µM	NNC(=O)CP(=O)(c1ccccc1)c1ccccc1
> 46 µM	Cc1cc(C)cc(OCC2CNC(=O)O2)c1 (centres undefined)
> 46 µM	CN(C)C/C=C(/c1ccc(Br)cc1)c1cccnc1.Cl.Cl.O
> 46 µM	O=C(NCN1CCOCC1)c1cnccn1
> 46 µM	O=c1[nH]cnc2c1ncn2[C@H]1CC[C@@H](CO)O1
> 46 µM	O=C(O)Cc1sc(-c2ccccc2)nc1-c1ccc(Cl)cc1
> 46 µM	COC(=O)CC[C@H](N)C(=O)O
> 46 µM	N=C(N)NCC1COc2ccccc2O1 (centres undefined)
> 46 µM	O=c1oc2c(O)c(O)cc3c(=O)oc4c(O)c(O)cc1c4c23
> 46 µM	CO[C@@]1(NC(=O)CSCC#N)C(=O)N2C(C(=O)[O-])=C(CSc3nnnn3C)CS[C@@H]21.[Na+]
> 46 µM	CCOC(=O)c1c(C)n(C)c2ccc(O)cc12
> 46 µM	O=[C@@](N\C(C([O-])=O)=C/CCCCSC[C@H](N)C(O)=O)[C@@H](C1)C1(C)C.[Na+]
> 46 µM	N[C@@H](CCC(=O)N[C@@H](CS)C(=O)NCC(=O)O)C(=O)O
> 46 µM	Cc1cccc(C(=O)O)c1O
> 46 µM	O=C(C)N1[C@](C[C@](O)([H])C1)([H])[C@@](O)=O
